Experimental data as given in ChEMBL document CHEMBL1132539 (J Med Chem, 1999).

Legend:
Neprilysin = target: T1, Neprilysin (Oryctolagus cuniculus, UniProt P08049); assay: Binding affinity against NEP from rabbit kidney(neutral endopeptidase)
T1 sequence (P08049 whole entry): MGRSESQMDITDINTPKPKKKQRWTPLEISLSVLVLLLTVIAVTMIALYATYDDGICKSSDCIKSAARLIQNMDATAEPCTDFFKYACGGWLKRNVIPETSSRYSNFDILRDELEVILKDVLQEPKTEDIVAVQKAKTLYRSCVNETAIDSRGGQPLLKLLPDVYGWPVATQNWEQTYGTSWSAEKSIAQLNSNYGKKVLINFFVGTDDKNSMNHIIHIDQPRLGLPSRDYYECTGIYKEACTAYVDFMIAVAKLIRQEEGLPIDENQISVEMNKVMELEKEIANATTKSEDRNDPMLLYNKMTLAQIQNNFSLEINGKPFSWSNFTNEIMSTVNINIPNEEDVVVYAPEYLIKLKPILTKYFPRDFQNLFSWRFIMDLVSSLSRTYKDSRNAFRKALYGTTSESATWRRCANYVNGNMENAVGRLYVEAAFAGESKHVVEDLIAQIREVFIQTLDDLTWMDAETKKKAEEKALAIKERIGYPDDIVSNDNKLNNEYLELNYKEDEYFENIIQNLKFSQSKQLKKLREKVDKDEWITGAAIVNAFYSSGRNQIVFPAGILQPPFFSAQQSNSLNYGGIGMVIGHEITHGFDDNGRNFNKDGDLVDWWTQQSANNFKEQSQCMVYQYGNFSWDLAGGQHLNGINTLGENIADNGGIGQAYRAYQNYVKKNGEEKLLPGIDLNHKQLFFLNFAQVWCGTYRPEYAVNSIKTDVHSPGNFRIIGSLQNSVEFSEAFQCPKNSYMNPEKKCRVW

Glutamyl aminopeptidase = Glutamyl aminopeptidase (Homo sapiens, UniProt Q07075); assay: Binding affinity against recombinant Aminopeptidase A
Chain of Glutamyl aminopeptidase (Q07075 whole entry): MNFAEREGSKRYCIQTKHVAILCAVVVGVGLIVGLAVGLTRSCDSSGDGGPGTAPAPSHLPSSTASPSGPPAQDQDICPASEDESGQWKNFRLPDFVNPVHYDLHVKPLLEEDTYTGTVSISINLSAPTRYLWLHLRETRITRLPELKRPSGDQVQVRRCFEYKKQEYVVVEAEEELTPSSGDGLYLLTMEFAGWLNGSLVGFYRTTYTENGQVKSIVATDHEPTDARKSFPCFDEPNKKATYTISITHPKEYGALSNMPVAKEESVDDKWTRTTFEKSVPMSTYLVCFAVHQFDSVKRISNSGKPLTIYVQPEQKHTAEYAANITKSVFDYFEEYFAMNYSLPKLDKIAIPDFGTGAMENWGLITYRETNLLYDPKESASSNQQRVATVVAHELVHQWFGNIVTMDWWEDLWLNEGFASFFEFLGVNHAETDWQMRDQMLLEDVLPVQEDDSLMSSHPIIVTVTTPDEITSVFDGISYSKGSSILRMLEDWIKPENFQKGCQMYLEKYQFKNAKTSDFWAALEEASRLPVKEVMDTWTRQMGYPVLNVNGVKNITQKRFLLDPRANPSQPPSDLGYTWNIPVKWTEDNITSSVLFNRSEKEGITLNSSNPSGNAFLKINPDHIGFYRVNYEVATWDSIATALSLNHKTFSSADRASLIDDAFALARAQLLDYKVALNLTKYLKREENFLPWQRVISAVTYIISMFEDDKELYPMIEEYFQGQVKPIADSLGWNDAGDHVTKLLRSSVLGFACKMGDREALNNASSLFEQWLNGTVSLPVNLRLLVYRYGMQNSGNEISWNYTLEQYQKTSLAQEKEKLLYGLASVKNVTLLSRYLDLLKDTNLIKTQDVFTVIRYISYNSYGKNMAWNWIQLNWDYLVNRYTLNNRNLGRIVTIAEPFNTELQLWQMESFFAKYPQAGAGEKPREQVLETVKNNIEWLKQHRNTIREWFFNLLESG

[1] = target: T2, Angiotensin-converting enzyme (Rattus norvegicus, UniProt P47820); assay: Binding affinity against Angiotensin I converting enzyme from rat testis
T2 sequence (P47820 whole entry): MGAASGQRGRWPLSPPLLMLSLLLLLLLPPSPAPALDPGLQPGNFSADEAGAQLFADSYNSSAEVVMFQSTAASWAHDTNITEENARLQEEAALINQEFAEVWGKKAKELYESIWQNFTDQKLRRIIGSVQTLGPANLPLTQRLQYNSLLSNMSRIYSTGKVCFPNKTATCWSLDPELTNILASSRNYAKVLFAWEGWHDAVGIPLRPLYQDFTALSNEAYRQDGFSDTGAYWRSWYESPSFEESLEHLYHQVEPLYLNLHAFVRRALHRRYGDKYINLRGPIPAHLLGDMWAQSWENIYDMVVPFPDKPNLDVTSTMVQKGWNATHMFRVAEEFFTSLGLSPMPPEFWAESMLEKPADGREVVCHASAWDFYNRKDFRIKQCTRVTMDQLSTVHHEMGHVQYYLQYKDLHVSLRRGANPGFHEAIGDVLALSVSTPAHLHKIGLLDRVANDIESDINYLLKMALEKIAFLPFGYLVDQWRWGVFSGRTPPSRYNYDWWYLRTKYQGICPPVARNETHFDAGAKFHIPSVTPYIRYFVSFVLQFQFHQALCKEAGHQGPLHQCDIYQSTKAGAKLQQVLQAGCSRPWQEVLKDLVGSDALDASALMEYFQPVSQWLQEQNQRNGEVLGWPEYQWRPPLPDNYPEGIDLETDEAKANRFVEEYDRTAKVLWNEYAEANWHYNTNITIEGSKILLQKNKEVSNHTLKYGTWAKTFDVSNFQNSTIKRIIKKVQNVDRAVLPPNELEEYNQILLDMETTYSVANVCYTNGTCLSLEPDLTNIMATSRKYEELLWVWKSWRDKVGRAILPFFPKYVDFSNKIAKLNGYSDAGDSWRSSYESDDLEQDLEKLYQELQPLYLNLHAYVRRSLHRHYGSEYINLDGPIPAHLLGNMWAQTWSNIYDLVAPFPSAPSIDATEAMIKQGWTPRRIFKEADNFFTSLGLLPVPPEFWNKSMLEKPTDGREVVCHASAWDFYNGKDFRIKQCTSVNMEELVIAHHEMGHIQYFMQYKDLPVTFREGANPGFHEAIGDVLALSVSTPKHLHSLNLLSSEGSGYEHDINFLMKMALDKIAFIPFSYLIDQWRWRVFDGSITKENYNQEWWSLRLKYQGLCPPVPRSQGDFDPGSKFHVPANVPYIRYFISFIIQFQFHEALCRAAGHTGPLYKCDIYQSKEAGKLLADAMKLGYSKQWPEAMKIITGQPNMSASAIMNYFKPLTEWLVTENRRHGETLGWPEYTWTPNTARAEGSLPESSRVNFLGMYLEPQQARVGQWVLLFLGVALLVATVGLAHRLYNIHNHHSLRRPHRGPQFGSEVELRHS

Aminopeptidase N = target: T3, Aminopeptidase N (Sus scrofa, UniProt P15145)
T3 sequence (P15145 whole entry): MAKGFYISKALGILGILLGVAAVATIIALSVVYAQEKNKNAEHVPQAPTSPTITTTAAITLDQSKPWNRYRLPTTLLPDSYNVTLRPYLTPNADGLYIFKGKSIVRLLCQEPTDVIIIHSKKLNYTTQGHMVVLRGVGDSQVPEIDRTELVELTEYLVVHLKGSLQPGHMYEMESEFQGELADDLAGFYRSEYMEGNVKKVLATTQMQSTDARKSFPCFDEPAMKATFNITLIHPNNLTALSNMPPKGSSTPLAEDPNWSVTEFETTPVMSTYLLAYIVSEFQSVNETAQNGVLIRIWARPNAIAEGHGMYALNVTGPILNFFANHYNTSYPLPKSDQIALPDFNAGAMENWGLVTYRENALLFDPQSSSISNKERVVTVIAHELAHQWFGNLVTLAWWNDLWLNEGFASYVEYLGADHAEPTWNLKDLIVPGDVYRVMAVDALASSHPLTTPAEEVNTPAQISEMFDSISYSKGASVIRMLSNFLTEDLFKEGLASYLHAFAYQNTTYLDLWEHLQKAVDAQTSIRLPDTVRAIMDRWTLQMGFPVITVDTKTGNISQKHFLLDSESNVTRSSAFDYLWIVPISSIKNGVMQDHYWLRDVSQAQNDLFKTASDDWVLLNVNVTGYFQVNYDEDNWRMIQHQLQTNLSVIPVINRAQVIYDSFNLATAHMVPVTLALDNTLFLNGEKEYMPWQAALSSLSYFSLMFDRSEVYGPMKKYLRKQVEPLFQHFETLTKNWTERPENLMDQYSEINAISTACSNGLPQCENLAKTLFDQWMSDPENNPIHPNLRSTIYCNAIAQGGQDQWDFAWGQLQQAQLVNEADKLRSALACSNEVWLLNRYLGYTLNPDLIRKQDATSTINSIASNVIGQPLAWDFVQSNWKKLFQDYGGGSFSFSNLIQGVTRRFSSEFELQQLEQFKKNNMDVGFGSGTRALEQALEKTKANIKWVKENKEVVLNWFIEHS
Description: Binding affinity against aminopeptidase N from pig kidney

Row | Compound | Ki (Neprilysin) [nM] | Ki (Glutamyl aminopeptidase) [nM] | Ki [1] [nM] | Ki (Aminopeptidase N) [µM]
1 | CC[C@@H](C)[C@H](NC(=O)[C@H](S)[C@H](N)CCS(=O)(=O)O)C(=O)N1CCC(C(=O)O)[C@H]1C(=O)O (stereo not given in full) | 219 | 0.873 | 259 | –
2 | N[C@H](CCS(=O)(=O)O)[C@H](S)C(=O)N[C@@H](Cc1ccc(O)cc1)C(=O)N[C@@H](CC(=O)O)C(=O)O | – | 27 | – | 48
3 | CC[C@@H](C)[C@H](NC(=O)[C@H](S)[C@H](N)CCS(=O)(=O)O)C(=O)N1CCC(C(=O)O)[C@@H]1C(=O)O (stereo not given in full) | 520 | 3.83 | 1090 | –
4 | CC[C@@H](C)[C@H](NC(=O)[C@@H](S)[C@@H](N)CCC(=O)O)C(=O)N[C@@H](CC(=O)O)C(=O)O | – | 16 | – | 3.9
5 | CC[C@@H](C)[C@H](NC(=O)[C@@H](S)[C@@H](N)CCS(=O)(=O)O)C(=O)N[C@@H](CC(=O)O)C(=O)O | – | 50 | – | > 100
6 | CC[C@@H](C)[C@H](NC(=O)[C@H](S)[C@H](N)CCS(=O)(=O)O)C(=O)N[C@@H](CC(=O)O)C(=O)O | 22 | 3.2 | 1200 | > 100
7 | CC[C@H](C)[C@@H](NC(=O)[C@@H](S)[C@H](N)CCS(=O)(=O)O)C(=O)N[C@@H](CC(=O)O)C(=O)O | – | 292 | – | > 100
8 | CC[C@@H](C)[C@H](NC(=O)[C@H](S)[C@@H](N)CCC(=O)O)C(=O)N[C@@H](CC(=O)O)C(=O)O | – | 13 | – | 0.12
9 | CC[C@@H](C)[C@H](NC(=O)[C@H](S)[C@H](N)CCC(=O)O)C(=O)N[C@@H](CC(=O)O)C(=O)O | 4 | 3.56 | 1800 | > 10
10 | N[C@H](CCS(=O)(=O)O)[C@@H](S)C(=O)N[C@@H](Cc1ccc(O)cc1)C(=O)N[C@@H](CCS(=O)(=O)O)C(=O)O | 520 | 9.3 | 660 | –
11 | CC[C@@H](C)[C@H](NCC(S)C(N)CCS(N)(=O)=O)C(=O)N[C@@H](CC(=O)O)C(=O)O (stereo not given in full) | – | 51 | – | 3.4
12 | CC[C@@H](C)[C@H](NC(=O)C(S)C(N)CCS(N)(=O)=O)C(=O)N[C@@H](CC(=O)O)C(=O)O (stereo not given in full) | – | 80 | – | 28
13 | CC[C@@H](C)[C@H](NC(=O)[C@@H](S)[C@H](N)CCS(=O)(=O)O)C(=O)N1CCC(C(=O)O)[C@H]1C(=O)O (stereo not given in full) | – | 110 | – | –
14 | CC[C@H](C)[C@@H](NC(=O)[C@H](S)[C@H](N)CCS(=O)(=O)O)C(=O)N[C@@H](CC(=O)O)C(=O)O | – | 14.7 | – | > 100
15 | CC[C@@H](C)[C@H](NC(=O)[C@H](S)[C@H](N)CCS(=O)(=O)O)C(N)=O | – | 145 | – | > 10
16 | CC[C@@H](C)[C@H](NC(=O)[C@@H](S)[C@H](N)CCC(=O)O)C(=O)N[C@@H](CC(=O)O)C(=O)O | – | 267 | – | > 10
17 | CC[C@@H](C)[C@H](NC(=O)[C@@H](S)[C@H](N)CCS(=O)(=O)O)C(=O)O | – | 1200 | – | > 10
